The results in this text go back to publication PMC12669040, “Tumour-specific STING agonist synthesis via a two-component prodrug system” (Nature Chemistry, 2025).

Values joined by “and” are separate entries in the source; they are usually repeats but may differ in a detail not shown here. Identical values can stand only once. Like-named read-outs stand apart in the source and are kept apart here. Some results are limits rather than exact numbers.

In test [1] the test system is THP-1 cells. In words: Dilution limits of N1/E4 combination to activate THP-1 cells (IFN-β ELISA). As to conditions: IFN-β secretion, 6 h, single component.
For test [2], the target named is T1, wild-type human STING LBD (hSTINGwt 138-379) (Homo sapiens, UniProt Q86WV6, H232R).
T1 construct: SUMO (N, cleaved yes); made in house; host or cells: Escherichia coli BL21 (DE3)
In words: Isothermal titration calorimetry (ITC), reverse titration. Type of test: binding. On the procedure:
Escherichia coli BL21 (DE3) (Thermo Scientific EC0114) was transformed with a pET28a plasmid (Genscript) harbouring the codon-optimized sequence of SUMO-hSTINGwt (aa138-379). Transformed BL21 cells were inoculated into LB medium (50 µg ml^−1 kanamycin) and incubated at 180 rpm, 37 °C overnight. The overnight culture was then diluted (1:100 dilution) in 2× YT medium (50 µg ml^−1 kanamycin) and incubated at 180 rpm, 37 °C until optical density at 600 nm (OD600) reached 0.6 (approximately 3 h). The bacterial culture was then cooled to 16 °C, induced with 0.5 mM isopropyl 1-thio-D-galactopyranoside and incubated overnight at 180 rpm, 16 °C. The bacterial cells were pelleted at 4,000g for 30 min, resuspended in 20 ml of lysis buffer (25 mM HEPES pH 7.5, 150 mM NaCl, 20 mM imidazole and 2 mM TCEP supplied with 2 tablets of cOmplete mini EDTA-free protease inhibitors) and disrupted by sonication on ice. The total lysate was clarified by centrifugation at 22,000g for 30 min. The supernatant was collected and filtered through a 0.45-µm filter (Millipore SLHAR33SS). The clarified lysate was then incubated on a roller with 10 ml bed volume of Ni-NTA resin (Thermo Scientific 88223) at 4 °C for 1 h. The Ni-NTA resin was then packed in a column, flushed with 20 ml of wash buffer (25 mM HEPES pH 7.5, 150 mM NaCl and 20 mM imidazole) and eluted with 40 ml of elution buffer (25 mM HEPES pH 8.0, 150 mM NaCl and 250 mM imidazole). The eluted protein was concentrated to approximately 5 ml (Millipore Amicon 10 kDa molecular weight cut-off (MWCO)) and buffer-exchanged into storage buffer (25 mM HEPES pH 7.5 and 150 mM NaCl). TCEP was then added to a final concentration of 2 mM, and 250 units of SUMO protease (Merck SAE0067) were added. The cleavage reaction mixture was left to stand at 4 °C overnight until LC–MS analysis indicated the completion of the cleavage reaction. The cleavage mixture was incubated with 10 ml bed volume of Ni-NTA resin on a roller at 4 °C for 1 h and packed in a disposable column. The flowthrough was collected, and the resin was further flushed with 20 ml of wash buffer. The eluted fractions were combined, concentrated and further purified by size-exclusion chromatography (Cytiva, Superdex 200 Increase 10/300 GL). The purified protein in storage buffer was concentrated to 330 µM (dimer concentration) as determined by bicinchoninic acid (BCA) assay, aliquoted, flash-frozen in liquid nitrogen and stored at −80 °C for future use.
The binding constants of purified dimers were measured by ITC (Malvern Panalytical AutoITC200) in a reverse-titration format. Stock DMSO solutions of each dimer were dissolved in titration buffer (25 mM HEPES pH 7.5 and 150 mM NaCl) to a final concentration of 25 µM and added to the titration cell. The syringe was filled with 250 µM of purified STING in a matching buffer. Titration was performed at 25 °C with the following parameters: 750 rpm stirring, 0.2 µl initial injection followed by 2-µl injections of the […] every 120 s. Titration of STING protein into blank buffer was separately performed and subtracted from the raw data before the analysis. The background-subtracted titration curves were fitted with the built-in Origin software using the standard one-site model.
Extended Data Fig. 2 Isothermal titration calorimetry (ITC) data for binding constant measurements. Purified hSTINGwt138-379 (250 μM of homodimer) was titrated into each dimer (25 μM) dissolved in a matching buffer (25 mM HEPES pH 7.5, 150 mM NaCl) at 25 °C and 750 rpm stirring. Binding constants were reported as the average from duplicate measurements.

In test [3] the test system is THP-1 Lucia ISG cells (interferon pathway). In words: Potency test of purified dimers on THP-1 Lucia ISG reporter cells. The format is cell-based, human. The conditions noted are these: for Raw readings: replicates 1-3; for fold induction at 0.00152416 µM: Concentration 1.52416 nM; for fold induction at 0.123457 µM: Concentration 123.457 nM; for fold induction at 0.37037 µM: Concentration 370.37 nM; for fold induction at 1.11111 µM: Concentration 1111.11 nM; for fold induction at 3.33333 µM: Concentration 3333.33 nM; for fold induction at 10 µM: Concentration 10000 nM; for EC50: three biological replicates, mean ± s.d., read-out: EC50 THP-1. The protocol: Cells were pelleted (150g, 10 min) and resuspended in the growth medium (40% conditioned) at a density of 1 × 10^6 cells ml^−1. The cell suspension was dispensed (50 µl each well) into a lidded white 96-well plate (BrandTech 781665). Test compounds or DMSO control were diluted in the growth medium and sterilized by filtering through 0.22-µm polyethersulfone (PES) membranes (Merck SLGP033RS). […] Upon cooling down to room temperature, 50 µl of reconstituted luciferase substrate (InvivoGen QUANTI-Luc) was added to each well via the injector of the plate reader (Molecular Devices SpectraMax i3x), and the luminescence output was recorded (4 s delay, 0.1 s integration). Raw signals were divided by the averaged signal of the DMSO-treated control wells and reported in relative luminescence unit (RLU). The dose–response curve of each replicate was fitted individually using the standard 4PL model (GraphPad Prism). The EC50 value of each compound was averaged from three independent experiments and reported as mean ± s.e.m.

Where [4] appears, read: 25 °C, average of duplicate measurements, read-out: Kd hSTINGwt (binding constant, ITC).
Setting [5] is: Homo sapiens, THP1-Lucia ISG, 24 h, three replicates, read-out: Processed reporter response per replicate (reading relative to DMSO).
Setting [6] is: Homo sapiens, THP1-Lucia ISG, 24 h.

T1 sequence (Q86WV6 138-379 H232R): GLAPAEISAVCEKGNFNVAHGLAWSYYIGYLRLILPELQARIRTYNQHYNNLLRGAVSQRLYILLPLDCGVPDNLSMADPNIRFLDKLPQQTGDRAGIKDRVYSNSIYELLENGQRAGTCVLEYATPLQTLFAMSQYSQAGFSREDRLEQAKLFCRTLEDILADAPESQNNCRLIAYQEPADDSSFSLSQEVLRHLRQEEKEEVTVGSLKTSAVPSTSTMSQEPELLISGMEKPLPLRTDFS

Consider `COc1cc2sc(C(=O)CCC(=O)O)cc2cc1S` [Compound N1], for which, in test [1], the “concentration up to which no STING activation was shown (alone)” value was greater than 64 µM.
In the case of `COc1cc2sc(C(=O)CCC(=O)O)cc2cc1Sc1cc2cc(C(=O)CCC(=O)O)sc2cc1OC` [Compound D1], the Kd in test [2] (setting [4]) was 65 nM; in test [2] (ITC run _01, read-out: Kd) it was 80 nM; in test [2] (ITC run _02, read-out: Kd) it was 50 nM. The Raw readings is 1353 RLU and 1053 RLU and 1124 RLU in test [3] (Conc 0.508053 nM); 759 RLU and 868 RLU and 713 RLU in test [3] (Conc 1.52416 nM); 1002 RLU and 721 RLU and 729 RLU in test [3] (Conc 4.57247 nM); 1412 RLU and 851 RLU and 1233 RLU in test [3] (Conc 13.7174 nM); 3959 RLU and 4405 RLU and 4421 RLU in test [3] (Conc 41.1523 nM); 44787 RLU and 77696 RLU and 48848 RLU in test [3] (Conc 123.457 nM). For the same compound, the Raw readings was 107911 RLU and 161465 RLU and 94323 RLU in test [3] (Conc 370.37 nM); 125522 RLU and 220455 RLU and 140381 RLU in test [3] (Conc 1111.11 nM); 142408 RLU and 266422 RLU and 170286 RLU in test [3] (Conc 3333.33 nM); 176790 RLU and 287573 RLU and 159056 RLU in test [3] (Conc 10000 nM). Also, the fold induction at 0.000508053 µM in test [3] (Homo sapiens, THP1-Lucia ISG, 24 h, Concentration 0.508053 nM, three replicates, read-out: Processed reporter response per replicate (reading relative to DMSO)) turned out to be 1.85. In addition, the fold induction at 0.00152416 µM in test [3] (setting [5]) stood at 1.04. Further, the fold induction at 0.00457247 µM in test [3] (Homo sapiens, THP1-Lucia ISG, 24 h, Concentration 4.57247 nM, three replicates, read-out: Processed reporter response per replicate (reading relative to DMSO)) worked out at 1.37. Also, in test [3] (Homo sapiens, THP1-Lucia ISG, 24 h, Concentration 13.7174 nM, three replicates, read-out: Processed reporter response per replicate (reading relative to DMSO)), the fold induction at 0.0137174 µM was determined as 1.93. Further, the fold induction at 0.0411523 µM in test [3] (Homo sapiens, THP1-Lucia ISG, 24 h, Concentration 41.1523 nM, three replicates, read-out: Processed reporter response per replicate (reading relative to DMSO)) stood at 5.41. In addition, in test [3] (setting [5]), the fold induction at 0.123457 µM was 61.3. For the same compound, the fold induction at 0.37037 µM in test [3] (setting [5]) is 148. In test [3] (setting [5]), the fold induction at 1.11111 µM came out at 172. In addition, in test [3] (setting [5]), the fold induction at 3.33333 µM worked out at 195. Also, the fold induction at 10 µM in test [3] (setting [5]) is 242. Further, in test [3] (setting [6]), the EC50 was 291 ± 22 nM.
Take `COc1cc2sc(C(=O)CCC(=O)O)cc2cc1SCSc1cc2cc(C(=O)CCC(=O)O)sc2cc1OC` [Compound D5]: the Kd in test [2] (setting [4]) is 32 nM; in test [2] (ITC run _01, read-out: Kd), 33 nM; in test [2] (ITC run _02, read-out: Kd) it was 31 nM. Also, the Raw readings is 1203 RLU and 820 RLU and 682 RLU in test [3] (Conc 0.508053 nM); 644 RLU and 783 RLU and 699 RLU in test [3] (Conc 1.52416 nM); 790 RLU and 1094 RLU and 558 RLU in test [3] (Conc 4.57247 nM); 2256 RLU and 4162 RLU and 2105 RLU in test [3] (Conc 13.7174 nM); 27829 RLU and 66900 RLU and 34361 RLU in test [3] (Conc 41.1523 nM); 93770 RLU and 170286 RLU and 89246 RLU in test [3] (Conc 123.457 nM). Moreover, the Raw readings in test [3] (Conc 370.37 nM) is 121713 RLU and 224782 RLU and 129344 RLU; in test [3] (Conc 1111.11 nM) it was 143643 RLU and 288417 RLU and 167064 RLU; in test [3] (Conc 3333.33 nM), 169624 RLU and 310357 RLU and 172333 RLU; in test [3] (Conc 10000 nM) it was 161133 RLU and 278063 RLU and 147917 RLU. Further, the fold induction at 0.00152416 µM in test [3] (setting [5]) is 0.881. The fold induction at 0.123457 µM in test [3] (setting [5]) amounted to 128. Further, the fold induction at 0.37037 µM in test [3] (setting [5]) stood at 166. Further, in test [3] (setting [5]), the fold induction at 1.11111 µM amounted to 196. In addition, the fold induction at 3.33333 µM in test [3] (setting [5]) came out at 232. The fold induction at 10 µM in test [3] (setting [5]) came to 220. Also, the EC50 in test [3] (setting [6]) was determined as 112 ± 6 nM.
